Results from PMC7782793, “Hydroxamic acid-modified peptide microarrays for profiling isozyme-selective interactions and inhibition of histone deacetylases” (Nature Communications, 2021).
Values joined by “and” are separate entries in the source; they are usually repeats but may differ in a detail not shown here. Equal values may be shown once. Marks after values point to notes of the source that are not given here. Non-standard residues stand in square brackets, D forms with d. Residues, ends and D or L forms follow the SMILES beside them. *: point of attachment. Asu = N[C@@H](CCCCCC(=O)O)C(=O)O; NHOH = ON*

How the values were obtained:
[1] = target: T1, HDAC1 (Homo sapiens, UniProt Q13547); assay: HDAC inhibition assay (fluorogenic, Ac-Leu-Gly-Lys(Ac)-AMC); assay type: biochemical; conditions: for HDAC1 dose-response data (relative enzyme activity), Fig. 6 + S. Fig. 10: duplicate columns
T1 construct: HDAC1 (full length, C-terminal His tag, C-terminal FLAG tag, BPS Bioscience, cat. #: 50051); FLAG (C); purchased BPS Bioscience 50051

[2] = target: T2, HDAC2 (Homo sapiens, UniProt Q92769); assay: Recombinant HDAC µSPOT microarray binding assay;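 note: Cellulose-bound peptide spots on slides incubated with six HDAC enzyme concentrations, binding intensity read, four-parameter variable-slope fit, EC50 is enzyme concentration giving half-maximal binding, in HEPES buffer pH 7.4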
T2 construct: HDAC2 (full length, C-terminal His tag, BPS Bioscience, cat. #: 50002); purchased BPS Bioscience 50002

[3] = target: T3, HDAC3/NCoR2 (Homo sapiens, UniProt O15379); assay: HDAC inhibition assay (fluorogenic, Ac-Leu-Gly-Lys(Ac)-AMC); assay type: biochemical; conditions: for HDAC3 dose-response data (relative enzyme activity), Fig. 6 + S. Fig. 10: duplicate columns
T3 construct: HDAC3/NCoR2 (full length, C-terminal His tag, NCoR2 N-terminal GST tag); purchased BPS Bioscience 50003

[4] = target: T4, HDAC6 (Homo sapiens, UniProt Q9UBN7); assay: as above; assay type: biochemical; conditions: HDAC6, replicates
T4 construct: HDAC6 (full length, BPS Bioscience, cat. #: 50056); purchased BPS Bioscience 50056
T4 sequence (Q9UBN7 1-1215): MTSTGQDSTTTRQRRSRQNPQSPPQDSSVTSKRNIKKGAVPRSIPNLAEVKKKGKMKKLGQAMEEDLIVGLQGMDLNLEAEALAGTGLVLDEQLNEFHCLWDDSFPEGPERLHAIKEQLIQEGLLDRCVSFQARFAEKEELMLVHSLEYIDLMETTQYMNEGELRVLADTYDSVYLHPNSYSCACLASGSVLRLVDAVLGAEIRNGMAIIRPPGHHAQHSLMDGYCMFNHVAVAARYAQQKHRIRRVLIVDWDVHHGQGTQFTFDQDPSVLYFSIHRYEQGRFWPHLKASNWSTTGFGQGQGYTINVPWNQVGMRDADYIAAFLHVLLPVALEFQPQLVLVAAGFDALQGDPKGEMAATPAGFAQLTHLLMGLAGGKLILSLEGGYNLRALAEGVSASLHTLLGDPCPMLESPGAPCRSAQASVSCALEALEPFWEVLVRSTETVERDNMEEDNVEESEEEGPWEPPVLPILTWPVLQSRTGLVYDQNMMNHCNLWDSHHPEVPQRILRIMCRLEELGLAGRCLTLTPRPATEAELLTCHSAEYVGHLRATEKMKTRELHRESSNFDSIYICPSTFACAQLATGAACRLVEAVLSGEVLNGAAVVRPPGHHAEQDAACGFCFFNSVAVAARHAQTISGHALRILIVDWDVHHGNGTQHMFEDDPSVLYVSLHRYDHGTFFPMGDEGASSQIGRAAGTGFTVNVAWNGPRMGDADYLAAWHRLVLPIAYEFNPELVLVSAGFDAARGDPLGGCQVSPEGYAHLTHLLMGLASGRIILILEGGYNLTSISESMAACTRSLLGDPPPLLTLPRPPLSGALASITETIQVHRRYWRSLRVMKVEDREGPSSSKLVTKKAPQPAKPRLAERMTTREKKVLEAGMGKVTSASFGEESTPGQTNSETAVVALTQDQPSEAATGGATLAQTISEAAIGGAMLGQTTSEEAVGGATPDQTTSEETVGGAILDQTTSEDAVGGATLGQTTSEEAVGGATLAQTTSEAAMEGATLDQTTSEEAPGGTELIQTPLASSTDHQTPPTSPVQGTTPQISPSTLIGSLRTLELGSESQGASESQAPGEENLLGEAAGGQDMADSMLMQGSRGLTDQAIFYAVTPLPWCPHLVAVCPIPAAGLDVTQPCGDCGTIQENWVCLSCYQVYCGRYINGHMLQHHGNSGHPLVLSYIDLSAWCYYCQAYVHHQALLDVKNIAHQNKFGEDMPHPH

[5] = log[inhibitor(M)] -10,5850266520292*, whole line marked with asterisks
[6] = resynthesized peptides, from Ki

T1 sequence (Q13547 whole entry): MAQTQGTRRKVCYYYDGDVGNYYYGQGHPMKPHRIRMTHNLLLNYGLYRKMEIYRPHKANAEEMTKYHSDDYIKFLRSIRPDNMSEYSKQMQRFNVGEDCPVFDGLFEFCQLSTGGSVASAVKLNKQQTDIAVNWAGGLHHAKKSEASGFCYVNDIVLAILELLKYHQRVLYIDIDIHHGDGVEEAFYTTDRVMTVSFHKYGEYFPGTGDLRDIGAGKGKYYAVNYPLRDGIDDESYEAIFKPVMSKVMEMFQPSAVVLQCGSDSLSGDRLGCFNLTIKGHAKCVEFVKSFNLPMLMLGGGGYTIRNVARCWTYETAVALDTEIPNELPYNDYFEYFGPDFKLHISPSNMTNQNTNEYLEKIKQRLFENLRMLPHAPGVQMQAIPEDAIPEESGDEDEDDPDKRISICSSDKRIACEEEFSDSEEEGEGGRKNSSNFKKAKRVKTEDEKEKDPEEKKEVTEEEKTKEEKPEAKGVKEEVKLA
T3 sequence (O15379 whole entry): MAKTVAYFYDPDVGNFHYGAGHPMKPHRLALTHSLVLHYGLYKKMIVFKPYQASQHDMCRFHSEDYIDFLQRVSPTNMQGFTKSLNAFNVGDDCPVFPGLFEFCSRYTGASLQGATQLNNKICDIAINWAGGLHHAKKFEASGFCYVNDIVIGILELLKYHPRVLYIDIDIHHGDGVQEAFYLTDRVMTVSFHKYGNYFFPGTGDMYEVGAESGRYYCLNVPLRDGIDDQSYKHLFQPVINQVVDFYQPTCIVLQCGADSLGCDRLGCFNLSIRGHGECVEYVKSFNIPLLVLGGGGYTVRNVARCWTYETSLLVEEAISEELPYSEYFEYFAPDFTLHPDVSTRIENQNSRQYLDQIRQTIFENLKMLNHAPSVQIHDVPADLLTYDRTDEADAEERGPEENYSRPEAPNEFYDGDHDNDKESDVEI
T3 sequence (Q9Y618 389-480 partner limits assumed): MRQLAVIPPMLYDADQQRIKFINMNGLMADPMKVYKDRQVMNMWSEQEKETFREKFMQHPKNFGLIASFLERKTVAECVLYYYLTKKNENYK
T2 sequence (Q92769 whole entry): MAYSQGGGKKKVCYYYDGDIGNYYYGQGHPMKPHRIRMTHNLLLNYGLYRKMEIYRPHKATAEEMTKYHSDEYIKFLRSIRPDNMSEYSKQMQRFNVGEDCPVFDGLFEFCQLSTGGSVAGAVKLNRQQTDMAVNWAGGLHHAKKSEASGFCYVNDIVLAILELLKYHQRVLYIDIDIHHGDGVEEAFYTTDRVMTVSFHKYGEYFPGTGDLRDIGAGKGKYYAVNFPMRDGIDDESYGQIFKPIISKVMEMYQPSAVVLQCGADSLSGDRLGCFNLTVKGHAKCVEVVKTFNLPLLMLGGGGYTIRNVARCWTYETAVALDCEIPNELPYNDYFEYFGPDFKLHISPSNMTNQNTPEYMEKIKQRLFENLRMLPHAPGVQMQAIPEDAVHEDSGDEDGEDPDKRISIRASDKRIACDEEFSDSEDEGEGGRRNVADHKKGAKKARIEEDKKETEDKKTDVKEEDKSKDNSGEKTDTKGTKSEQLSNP

## CC[C@H](C)[C@H](NC(=O)[C@@H](NC(=O)[C@H](CO)NC(=O)[C@H](CCCNC(=N)N)NC(=O)[C@H](CCCCCC(=O)NO)NC(=O)[C@H](CC(N)=O)NC(=O)[C@H](Cc1ccc(O)cc1)NC(=O)[C@H](Cc1c[nH]cn1)NC(=O)[C@H](C)NC(=O)[C@H](CC(C)C)NC(=O)[C@H](CCCNC(=N)N)NC(=O)[C@H](CO)NC(=O)[C@H](C)NC(=O)[C@H](CCC(=O)O)NC(C)=O)[C@@H](C)O)C(=O)N[C@H](C(=O)N[C@@H](CO)C(=O)N[C@@H](Cc1c[nH]c2ccccc12)C(N)=O)[C@@H](C)O [11a] (Ac-EASRLAHYN[Asu](NHOH)RSTITSW-NH2)
[1]
  Ki: 13.1 ± 0.1 nM
[1]; log[inhibitor(M)] -5.69897
  HDAC1 dose-response data (relative enzyme activity), Fig. 6 + S. Fig. 10: 4.17 and 5.0607
[1]; log[inhibitor(M)] -6.39794
  HDAC1 dose-response data (relative enzyme activity), Fig. 6 + S. Fig. 10: 14.283 and 18.2541
[1]; log[inhibitor(M)] -7.09691
  HDAC1 dose-response data (relative enzyme activity), Fig. 6 + S. Fig. 10: 37.8888 and 46.2715
[1]; log[inhibitor(M)] -7.79588
  HDAC1 dose-response data (relative enzyme activity), Fig. 6 + S. Fig. 10: 70.7486 and 79.6987
[1]; log[inhibitor(M)] -8.49485
  HDAC1 dose-response data (relative enzyme activity), Fig. 6 + S. Fig. 10: 87.0411 and 94.7749
[1]; log[inhibitor(M)] -9.19382
  HDAC1 dose-response data (relative enzyme activity), Fig. 6 + S. Fig. 10: 97.6689 and 100.068
[1]; log[inhibitor(M)] -9.89279
  HDAC1 dose-response data (relative enzyme activity), Fig. 6 + S. Fig. 10: 97.248 and 100.059
[1]; [5]
  HDAC1 dose-response data (relative enzyme activity), Fig. 6 + S. Fig. 10: 97,6864843* and 100,018018*
[2]
  EC50: > 25.1 nM
[3]
  Ki: 3.45 ± 0.02 nM
[3]; log[inhibitor(M)] -4.30103
  HDAC3 dose-response data (relative enzyme activity), Fig. 6 + S. Fig. 10: 0.8032 and 0.6973
[3]; log[inhibitor(M)] -5
  HDAC3 dose-response data (relative enzyme activity), Fig. 6 + S. Fig. 10: 0.9208 and 1.031
[3]; log[inhibitor(M)] -5.69897
  HDAC3 dose-response data (relative enzyme activity), Fig. 6 + S. Fig. 10: 3.115 and 3.491
[3]; log[inhibitor(M)] -6.39794
  HDAC3 dose-response data (relative enzyme activity), Fig. 6 + S. Fig. 10: 8.97 and 10.4813
[3]; log[inhibitor(M)] -7.09691
  HDAC3 dose-response data (relative enzyme activity), Fig. 6 + S. Fig. 10: 21.4302 and 25.3963
[3]; log[inhibitor(M)] -7.79588
  HDAC3 dose-response data (relative enzyme activity), Fig. 6 + S. Fig. 10: 44.8111 and 52.4153
[3]; log[inhibitor(M)] -8.49485
  HDAC3 dose-response data (relative enzyme activity), Fig. 6 + S. Fig. 10: 70.9236 and 81.6314
[3]; log[inhibitor(M)] -9.19382
  HDAC3 dose-response data (relative enzyme activity), Fig. 6 + S. Fig. 10: 91.8976 and 96.1605
[3]; log[inhibitor(M)] -9.89279
  HDAC3 dose-response data (relative enzyme activity), Fig. 6 + S. Fig. 10: 95.3177 and 97.0902
[3]; [5]
  HDAC3 dose-response data (relative enzyme activity), Fig. 6 + S. Fig. 10: 96,0565351* and 98,690933*
[3]; [6]
  selectivity for HDAC3 vs. HDAC8: 63 fold and > 60 fold
  selectivity for HDAC3 vs. HDACs 1 and 2: 4 fold and ~ 4 fold
[4]; log[inhibitor(M)] -4.30103
  residual enzymatic activity relative to control wells: 2.583 and 1.686
[4]; log[inhibitor(M)] -5
  residual enzymatic activity relative to control wells: 3.305 and 1.741
[4]; log[inhibitor(M)] -5.69897
  residual enzymatic activity relative to control wells: 5.202 and 4.016
